Values quoted from earlier work, collected in patent US20170247690A1, “ONCOVIRAL TREATMENT WITH NUCLEASE AND CHEMOTHERAPEUTIC” (priority 2016, published 2017).

Experiments:
[1] = test system: proteasome T-L activity; conditions: animal model studies
[2] = molecular target: 20S proteasomes (Homo sapiens, UniProt Q99436); conditions: purified 20S proteasomes

SMILES | T-L proteasome activity in vivo [1] | EC50 for trypsin-like (T-L) activity, comparison [2]
CC(C)C[C@H](NC(=O)[C@H](Cc1ccccc1)NC(=O)c1cnccn1)B(O)O [bortezomib] | enhances T-L proteasome activity | –
C[C@@]12OC(=O)[C@]1([C@@H](O)[C@@H]1C=CCCC1)NC(=O)[C@@H]2CCCl [salinosporamide A, Salinosporamide A] | marked inhibition of T-L activity | lower EC50 for trypsin-like (T-L) activity than does bortezomib
